In US10189819B2, “Factor IXa inhibitors” (MERCK SHARP & DOHME CORP., priority 2014, dated 2019):

biological target: Factor IXa (Homo sapiens (Human), UniProt P00740); test: Determination of inhibitory activity against Factor IXa (cleavage of fluorescent peptide CH3SO2-D-CHG-Gly-Arg-AFC); assay type: biochemical; details: read-out: FIXa IC50
Protocol: Determination of Inhibitory Activity Against Factor IXa
Formation of a clot to stem bleeding at a site of blood vessel injury involves the coordinated activity of a group of plasma proteins that initiate and propagate fibrin formation and subsequently protect fibrin from premature degradation. Factor IX is a key component of the plasma system that forms a fibrin clot at a site of vascular injury. The activity of Factor IXa is measured by monitoring the cleavage of the fluorescent peptide, CH3SO2-D-CHG-Gly-Arg-AFC.AcOH (“CHG” is cyclohexyl-glycine and “AFC” is trifluoro aminomethyl coumarin). Factor IXa cleaves the amide bond between Arg and AFC, thereby releasing the AFC fluorophore. The free AFC can be detected with a fluorescence detector at an excitation wavelength of 405 nm and emission wavelength of 510 nm.

Chain of Factor IXa (P00740 227-461): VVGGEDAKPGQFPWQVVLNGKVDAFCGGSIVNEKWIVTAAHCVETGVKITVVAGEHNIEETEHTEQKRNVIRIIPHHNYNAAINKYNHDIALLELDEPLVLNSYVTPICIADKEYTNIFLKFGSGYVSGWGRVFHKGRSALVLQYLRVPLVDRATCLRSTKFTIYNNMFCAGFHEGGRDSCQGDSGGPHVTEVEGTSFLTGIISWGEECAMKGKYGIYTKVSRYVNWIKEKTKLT
Chain of Factor IXa (P00740 47-191 partner): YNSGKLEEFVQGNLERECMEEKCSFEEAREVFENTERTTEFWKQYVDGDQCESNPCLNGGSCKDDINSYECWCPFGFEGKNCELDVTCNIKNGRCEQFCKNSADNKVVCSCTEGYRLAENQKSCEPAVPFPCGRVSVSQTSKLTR

Structure (SMILES)	IC50 [nM]
Cc1ncn(-c2cc(Cl)c(C(=O)NCC(c3ccc(=O)[nH]c3)c3nc4ccc(Cl)cc4[nH]3)c(Cl)c2)n1 (racemic) [Example 39, 2,6-Dichloro-N-(2-(6-chloro-1H-benzo[d]imidazol-2-yl)-2-(6-oxo-1,6-dihydropyridin-3-yl)ethyl)-4-(3-methyl-1H-1,2,4-triazol-1-yl)benzamide 2,2,2-trifluoroacetate]	2.4
COc1ccc(C(CNC(=O)c2c(Cl)cc(-n3cnc(C)n3)cc2Cl)c2nc3ccc(Cl)cc3[nH]2)cn1 (racemic) [Example 40, (±)-2,6-Dichloro-N-(2-(6-chloro-1H-benzo[d]imidazol-2-yl)-2-(6-methoxypyridin-3-yl)ethyl)-4-(3-methyl-1H-1,2,4-triazol-1-yl)benzamide]	32.7
COc1cc2nc(C(CNC(=O)c3c(Cl)cc(-n4cnc(C)n4)cc3Cl)n3cc(CO)nn3)[nH]c2cc1Cl (racemic) [Example 71, (±)-2,6-Dichloro-N-(2-(6-chloro-5-methoxy-1H-benzo[d]imidazol-2-yl)-2-(4-(hydroxymethyl)-1H-1,2,3-triazol-1-yl)ethyl)-4-(3-methyl-1H-1,2,4-triazol-1-yl)benzamide]	20.5
Cc1cc2nc(C(CNC(=O)c3c(Cl)cc(-n4cc(CCO)nn4)cc3Cl)c3ccccc3)[nH]c2cc1C (single isomer, unassigned) [Example 1]	10.4
Cc1cc2nc(C(C)(CNC(=O)c3ccc(-n4cnnc4)cc3Cl)c3ccccc3)[nH]c2cc1C (single isomer, unassigned) [Example 69]	55.2
Cc1cc2nc([C@@H](CNC(=O)c3c(Cl)cc(-n4cnnn4)cc3Cl)c3ccccc3)[nH]c2cc1C [Example 2, (R)-2,6-dichloro-N-(2-(5,6-dimethyl-1H-benzo[d]imidazol-2-yl)-2-phenylethyl)-4-(1H-tetrazol-1-yl)benzamide]	26.4
Cc1cc2nc(C(CNC(=O)c3c(Cl)cc(-c4ccnc(C(=O)O)c4)cc3Cl)c3ccccc3)[nH]c2cc1C (stereo not shown) [Example 16, 4-(3,5-Dichloro-4-((2-(5,6-dimethyl-1H-benzo[d]imidazol-2-yl)-2-phenylethyl)carbamoyl)phenyl)picolinic acid]	73.6
Cc1cc2nc([C@@H](CNC(=O)c3ccc(-n4cnnc4)cc3Cl)c3ccccc3)[nH]c2cc1C [Example 37, (R)-2-Chloro-N-(2-(5,6-dimethyl-1H-benzo[d]imidazol-2-yl)-2-phenylethyl)-4-(4H-1,2,4-triazol-4-yl)benzamide]	15.7
Cc1cc2nc([C@@H](CNC(=O)c3c(Cl)cc(-n4cnnc4)cc3Cl)c3cncc(F)c3)[nH]c2cc1C [Example 38, (R)-2,6-Dichloro-N-(2-(5,6-dimethyl-1H-benzo[d]imidazol-2-yl)-2-(5-fluoropyridin-3-yl)ethyl)-4-(4H-1,2,4-triazol-4-yl)benzamide]	14.8
Cc1ncn(-c2cc(Cl)c(C(=O)NC[C@@H](c3ccc(C(=O)O)cc3)c3nc4c(C)cc(Cl)cc4[nH]3)c(Cl)c2)n1 [Example 41, (R)-4-(1-(6-Chloro-4-methyl-1H-benzo[d]imidazol-2-yl)-2-(2,6-dichloro-4-(3-methyl-1H-1,2,4-triazol-1-yl)benzamido)ethyl)benzoic acid]	18.6
CCOC(=O)c1ccc([C@H](CNC(=O)c2c(Cl)cc(-n3cnc(C)n3)cc2Cl)c2nc3c(C)cc(Cl)cc3[nH]2)cc1 [Example 42, (R)-Ethyl 4-(1-(6-chloro-4-methyl-1H-benzo[d]imidazol-2-yl)-2-(2,6-dichloro-4-(3-methyl-1H-1,2,4-triazol-1-yl)benzamido)ethyl)benzoate]	39.1
O=C(NC[C@@H](c1ccc(F)cc1)c1nc2ccc(Cl)cc2o1)c1c(Cl)cc(-n2cnnc2)cc1Cl [Example 43, (R)-2,6-Dichloro-N-(2-(6-chlorobenzo[d]oxazol-2-yl)-2-(4-fluorophenyl)ethyl)-4-(4H-1,2,4-triazol-4-yl)benzamide]	96.2

same assay, conditions: read-out: hFIXa IC50

Structure (SMILES)	IC50 [nM]
Cc1cc2nc(C(CNC(=O)c3ccc(-n4cc(CCO)nn4)cc3Cl)c3ccccc3)[nH]c2cc1C (stereo not shown) [Example 3]	21.9
Cc1ncn(-c2cc(Cl)c(C(=O)NCC(c3ccccc3)c3nc4cc(C)c(C)cc4[nH]3)c(C(F)(F)F)c2)n1 (stereo not shown) [Example 4]	63.1
Cc1cc2nc(C(CNC(=O)c3c(Cl)cc(-n4cnnc4)cc3C(F)(F)F)c3ccccc3)[nH]c2cc1C (stereo not shown) [Example 5]	21.8
Cc1ncn(-c2cc(Cl)c(C(=O)NCC(c3ccccc3)c3nc4cc(C)c(C)cc4[nH]3)c(Cl)c2)n1 (stereo not shown) [Example 6]	20.8
Cc1cc2nc(C(CNC(=O)c3c(Cl)cc(-n4cnnc4)cc3Cl)c3ccccc3)[nH]c2cc1C (stereo not shown) [Example 7]	3.64
Cc1ncn(-c2cc(C)c(C(=O)NCC(c3ccccc3)c3nc4cc(C)c(C)cc4[nH]3)c(Cl)c2)n1 (stereo not shown) [Example 8]	6.99
COc1cc(-n2cnnc2)cc(Cl)c1C(=O)NCC(c1ccccc1)c1nc2cc(C)c(C)cc2[nH]1 (stereo not shown) [Example 9]	14.8
Cc1cc2nc(C(CNC(=O)c3c(F)cc(-n4cnnc4)cc3Cl)c3ccccc3)[nH]c2cc1C (stereo not shown) [Example 10]	15.2
Cc1cc2nc(C(CNC(=O)c3c(C)cc(-n4cnnc4)cc3Cl)c3ccccc3)[nH]c2cc1C (stereo not shown) [Example 11]	8.05
Cc1cc2nc([C@@H](CNC(=O)c3ccc(-n4cnnn4)cc3Cl)c3ccccc3)[nH]c2cc1C [Example 12]	78.3
COc1ncn(-c2ccc(C(=O)NCC(c3cccc(F)c3)c3nc4ccc(Cl)cc4[nH]3)c(Cl)c2)n1 (stereo not shown) [Example 13]	65.8
Cc1cc2nc(C(CNC(=O)c3c(Cl)cc(-n4cnnc4)cc3OC(F)(F)F)c3ccccc3)[nH]c2cc1C (stereo not shown) [Example 14]	40
Cc1cc(Cl)cc2[nH]c(C(CNC(=O)c3ccc(-n4cnnc4C)cc3Cl)c3cccc(F)c3)nc12 (stereo not shown) [Example 15]	4.9
Cc1cc2nc(C(CNC(=O)c3c(Cl)cc(-c4cncnc4)cc3Cl)c3ccccc3)[nH]c2cc1C (stereo not shown) [Example 17]	18.1
Cc1cc2nc(C(CNC(=O)c3c(Cl)cc(-c4cnn(CS(C)(=O)=O)c4)cc3Cl)c3ccccc3)[nH]c2cc1C (stereo not shown) [Example 18]	403
CCOC(=O)c1cc(-c2cc(Cl)c(C(=O)NCC(c3ccccc3)c3nc4cc(C)c(C)cc4[nH]3)c(Cl)c2)ccn1 (stereo not shown) [Example 19]	343
Cc1cc2nc(C(CNC(=O)c3c(Cl)cc(-c4cnc5c(c4)CCC(=O)N5)cc3Cl)c3ccccc3)[nH]c2cc1C (stereo not shown) [Example 20]	276
Cc1cc2nc(C(CNC(=O)c3c(Cl)cc(-c4cnc(OCCF)nc4)cc3Cl)c3ccccc3)[nH]c2cc1C (stereo not shown) [Example 21]	378
Cc1cc2nc(C(CNC(=O)c3c(Cl)cc(-c4cncc(C(C)(C)O)c4)cc3Cl)c3ccccc3)[nH]c2cc1C (stereo not shown) [Example 22]	44.7
COC(=O)c1ccc(-c2cc(Cl)c(C(=O)NCC(c3ccccc3)c3nc4cc(C)c(C)cc4[nH]3)c(Cl)c2)cn1 (stereo not shown) [Example 23]	544

Structure (SMILES)	IC50 [nM]
Cc1cc2nc(C(CNC(=O)c3c(Cl)cc(-c4cnc5c(c4)CNC5=O)cc3Cl)c3ccccc3)[nH]c2cc1C (stereo not shown) [Example 24]	141
Cc1cc2nc(C(CNC(=O)c3c(Cl)cc(-c4cnc5ccccc5c4)cc3Cl)c3ccccc3)[nH]c2cc1C (stereo not shown) [Example 25]	464
Cc1cc2nc(C(CNC(=O)c3c(Cl)cc(-c4ccc(C(=O)O)nc4)cc3Cl)c3ccccc3)[nH]c2cc1C (stereo not shown) [Example 26]	312
Cc1cc2nc(C(CNC(=O)c3c(Cl)cc(-c4ccc5nncn5c4)cc3Cl)c3ccccc3)[nH]c2cc1C (stereo not shown) [Example 27]	21
Cc1cc2nc(C(CNC(=O)c3c(Cl)cc(-c4ccn5ncnc5c4)cc3Cl)c3ccccc3)[nH]c2cc1C (stereo not shown) [Example 28]	64.8
Cc1cc2nc(C(CNC(=O)c3c(Cl)cc(-c4cnc(C5CC5)nc4)cc3Cl)c3ccccc3)[nH]c2cc1C (stereo not shown) [Example 29]	654
CCOC(=O)c1cc(-c2ccc(C(=O)NCC(c3ccccc3)c3nc4cc(C)c(C)cc4[nH]3)c(Cl)c2)ccn1 (stereo not shown) [Example 30]	247
Cc1cc2nc(C(CNC(=O)c3c(Cl)cc(-c4cnn(CCO)c4)cc3Cl)c3ccccc3)[nH]c2cc1C (stereo not shown) [Example 31]	65.3
Cc1cc2nc(C(CNC(=O)c3c(Cl)cc(-c4cn[nH]c4)cc3Cl)c3ccccc3)[nH]c2cc1C (stereo not shown) [Example 32]	503
Cc1cc2nc(C(CNC(=O)c3ccc(-c4ccnc(C(=O)O)c4)cc3Cl)c3ccccc3)[nH]c2cc1C (stereo not shown) [Example 33]	538
Cc1cc2nc(C(CNC(=O)c3c(Cl)cc(-c4cncc(CO)c4)cc3Cl)c3ccccc3)[nH]c2cc1C (stereo not shown) [Example 34]	10.3
Cc1cc2nc(C(CNC(=O)c3c(Cl)cc(-c4ccc(CO)nc4)cc3Cl)c3ccccc3)[nH]c2cc1C (stereo not shown) [Example 35]	42.7
Cc1cc2nc(C(CNC(=O)c3c(Cl)cc(-c4ccnc(CO)c4)cc3Cl)c3ccccc3)[nH]c2cc1C (stereo not shown) [Example 36]	52.5
Cc1ccc2nc(C(CNC(=O)c3ccc(-n4cnnc4)cc3Cl)c3ccccc3)[nH]c2c1 (stereo not shown) [Example 44]	53.5
Cc1cccc2[nH]c(C(CNC(=O)c3ccc(-n4cnnc4)cc3Cl)c3ccccc3)nc12 (stereo not shown) [Example 45]	622
Cc1ncn(-c2cc(Cl)c(C(=O)NC[C@@H](c3cccc(F)c3)c3nc4ccc(Cl)cc4[nH]3)c(Cl)c2)n1 [Example 46]	9.78
Cc1ncn(-c2cc(Cl)c(C(=O)NCC(c3cccc(F)c3)c3nc4c(C)cc(Cl)cc4[nH]3)c(Cl)c2)n1 (stereo not shown) [Example 47]	6.18
COc1cc2nc(C(CNC(=O)c3c(Cl)cc(-n4cnc(C)n4)cc3Cl)c3cccc(F)c3)[nH]c2cc1Cl (stereo not shown) [Example 48]	2.86
COc1ccc2nc(C(CNC(=O)c3c(Cl)cc(-n4cnc(C)n4)cc3Cl)c3cccc(F)c3)[nH]c2c1 (stereo not shown) [Example 49]	49.1
Cc1cc2nc(C(CNC(=O)c3ccc(-n4cnnc4)cc3Cl)c3cccc(F)c3)[nH]c2cc1C (stereo not shown) [Example 50]	5.69
